One data set deals with Huh7 cells. In words: Cell viability (cell confluency, Alamar Blue) of P. berghei-infected Huh7 cells. The class given is cell-based. The settings on record: 5 µM, in words. How it is done:
The in vitro liver stage activity of gold complexes was assessed against P. berghei-infected Huh7 cells, as previously described. Briefly, Huh7 cells were cultured in RPMI-1640 medium supplemented with 10% (v/v) fetal bovine serum, 1% (v/v) penicillin/streptomycin, 1% (v/v) glutamine, 1% (v/v) non-essential amino acids and 10 mM HEPES. On the day prior to infection, Huh7 cells were seeded in 96-well plates at a density of approximately 3.1 × 10^4 cell/cm^2 and incubated at 37 °C, 5% CO2. Stock solutions of the complexes were initially prepared in DMSO and serially diluted in infection medium, i.e., culture medium supplemented with gentamicin (50 µg/mL) and fungizone (0.8 µg/mL), to obtain the test concentrations. As a control, DMSO was diluted in infection medium to a percentage that equals that of the highest compound concentrations tested. These dilutions were added to the cells in triplicates and incubated for 1 h at 37 °C, 5% CO2, after which 1 × 10^4 luciferase-expressing P. berghei sporozoites were added to each well. Plates were centrifuged at 1800× g for 5 min at room temperature and incubated for the duration of the assay. At 46 h post-infection (hpi), the impact of each compound concentration on cell viability was assessed by the Alamar Blue (Invitrogen, Buckinghamshire, UK) assay, according to the manufacturer’s recommendations. Infection was next assessed by bioluminescence, employing the Firefly Luciferase Assay Kit 2.0 (Biotium, Fremont, CA, USA), according to the manufacturer’s recommendations. For IC50 determination, nonlinear regression analysis was employed to fit the normalized results of the dose–response curves, using GraphPad Prism 8 (GraphPad software, La Jolla, CA, USA).

Data set [1] deals with P. falciparum NF54 blood stage. In words: In vitro activity against the blood stage of P. falciparum NF54 (SYBR green flow cytometry). The format is cell-based, Plasmodium falciparum. Particulars: 48 h, read-out: IC50 PfNF54. How it is done:
Ring-stage synchronized cultures of PfNF54 at 2.5% hematocrit and at approximately 1% parasitemia were incubated with gold complexes or DMSO (vehicle control) in 96 well-plates, for 48 h, at 37 °C in a 5% CO2 and 5% O2 atmosphere. Stock solutions of Chloroquine (positive control), [P][AuSEt(=S)] and [P][AuSEt(=Se)] were prepared in DMSO. Working solutions were prepared from the stock solutions in complete malaria culture medium (CMCM), which consists of RPMI 1640 supplemented with 25 mM HEPES, 2.4 mM L-glutamine, 50 μg/mL gentamicin, 0.5% w/v Albumax, 11 mM glucose, 1.47 mM hypoxanthine and 37.3 mM NaHCO3. For each measurement, 5 µL of the culture (approximately 800,000 cells) was stained with the DNA-specific dye SYBR green I at 1×. After 20 min of incubation, in the dark, the stained sample was analyzed by flow cytometry. For each flow cytometric measurement, approximately 100,000 events were analyzed. All samples were analyzed in triplicate and two independent experiments were performed.
In general terms: Flow cytometry measures light scatter and fluorescence of single cells or particles in a stream.

Data set [2] relates to A2780 ovarian cancer cells. Set-up: method as in PMID 32391537. Particulars: 48 h incubation, MTT; starred values; read-out: IC50 A2780, 48 h; cited from earlier work.
The next data set can be described thus: Cyclic voltammetry. The format is physicochemical. The settings on record: CH2Cl2, NBu4PF6. From the text:
The redox properties of the various gold(III) bis(dithiolene) and bis(diselenolene) complexes were investigated by cyclic voltammetry using the same conditions, dichloromethane solutions and NBu4PF6 as supporting electrolyte. Under these conditions, the nature of the counter-ion, Ph4P^+ or Et4N^+, had no influence on the redox properties observed, due to ion exchange with the Bu4N^+ of the supporting electrolyte. Thus, only the result of one monoanion is included in Table 1, even if the two salts were analyzed. For all the investigated monoanionic bis(dithiolene) complexes, three redox processes are observed on the cyclic voltammograms. On the anodic scan, the two oxidation waves correspond to the oxidation of the monoanionic species into the neutral and to the monocationic complex. Most of these complexes had the tendency to deposit on the electrode once oxidized and frequently a strong desorption peak was observed on the reversible scan. This phenomenon occurs essentially for the complex with an exocyclic sulfur atom, [AuSR(=S)]^−1. On the cathodic scan, an irreversible process associated with the reduction in the monoanion into the dianion occurs (Scheme 2). […] The presence of oxygen instead of sulfur makes the oxidation of the monoanionic into the neutral species easier. On the other hand, the presence of electron-withdrawing substituents such as =C(CN)2 induces an anodic shift of the oxidation potentials by 300 mV, compared with the =O derivative, leading to a monoanion which is more difficult to oxidize than the other complexes of the series. […] Indeed, the potential difference between the second and the first oxidation potentials amounts to 470 mV and 410 mV for the =O and the =C(CN)2 derivatives, respectively, while for the =S analogues this value is smaller (170 mV). […] For comparison, we also investigated the redox behavior of Auranofin using the same experimental conditions in CH2Cl2 in the presence of NBu4PF6 as a supporting electrolyte. Using these conditions, upon anodic scan only one irreversible oxidation process is observed at 1.42 V vs. SCE. Therefore, all these monoanionic gold bis(dithiolene) and bis(diselenolene) complexes are easier to oxidize than Auranofin.
All reagents and materials from commercial sources were used without further purification. NMR spectra were recorded at room temperature using CDCl3 unless otherwise stated (Figures S7–S15). Chemical shifts are reported in ppm and ^1H NMR spectra were referenced to residual CHCl3 (7.26 ppm) and ^13C NMR spectra were referenced to CHCl3 (77.2 ppm). Mass spectra were recorded with an Agilent 6510 instrument for organics compounds and with a Thermo-Fisher Q-Exactive instrument for complexes by the Center Régional de Mesures Physiques de l’Ouest, Rennes. Cyclic voltammograms (CV)s were carried out on a 10^−3 M solution of complex in CH2Cl2-[NBu4] [PF6] 0.1 M. CVs were recorded on a Biologic SP-50 instruments at 0.1 Vs^−1 on a platinum disk electrode. Potentials were measured versus KCl Saturated Calomel Electrode (SCE). Column chromatography was performed using silica gel Merck 60 (70–260 mesh). The solvents were purified and dried by standard methods. The proligand 2-SEt(=C(CN2)), [72] and complexes [N][AuSMe(=S)], [73] [N][AuSEt(=S)], [74] [P][AuSEt(=O)], [75] [N][AuSeEt(=S)] [75] and [P][AuSPr(=S)] [76] were synthesized according to the previously reported procedure.

What is called IC50 is the concentration that gives 50% inhibition.

Consider `CCn1c2c(sc1=S)[S][Au-]1([S]c3sc(=S)n(CC)c3[S]1)[S]2.c1ccc([P+](c2ccccc2)(c2ccccc2)c2ccccc2)cc1` [[P][AuSEt(=S)]], for which, in the data set on Huh7 cells, the “toxicity seen as lower cell confluency” value is “some degree of toxicity”. Moreover, the IC50 in data set [1] turned out to be 1.06 ± 0.393 µM.
Turning to `CCn1c2c(sc1=[Se])[S][Au-]1([S]c3sc(=[Se])n(CC)c3[S]1)[S]2.c1ccc([P+](c2ccccc2)(c2ccccc2)c2ccccc2)cc1` [[P][AuSEt(=Se)]], the “toxicity seen as lower cell confluency” value in the data set with Huh7 cells was “some degree of toxicity”. For the same molecule, the IC50 in data set [1] worked out at 1 ± 0.391 µM.
`CC(=O)OC[C@H]1O[C@@H]([S-])[C@H](OC(C)=O)[C@@H](OC(C)=O)[C@@H]1OC(C)=O.CCP(CC)CC.[Au+]` [Auranofin, reference compound]: in data set [2], the IC50 is 0.43 ± 0.27 µM. For the same molecule, the “irreversible oxidation process (anodic scan)” value in the data set “Cyclic voltammetry” was determined as 1.42 V vs. SCE.

(Values after publication PMC9266914, “Broad Spectrum Functional Activity of Structurally Related Monoanionic Au(III) Bis(Dithiolene) Complexes” (International Journal of Molecular Sciences, 2022).)
